Columns and labels:
large (Lg) crabgrass [1] = assay: Test A preemergence; type: in vivo, Digitaria sanguinalis; conditions: for Crabgrass, Large plant response rating: 500 g ai/ha
Summary of the method: (§1)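 Injury scores run from 0, no effect, to 100, complete control, judged by eye against untreated plants roughly 10 days after treatment. Chemicals carried a surfactant in a non-phytotoxic solvent and went onto loam–sand soil preemergence or onto one- to two-leaf seedlings postemergence.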

velvetleaf [2] = assay: Test A preemergence; type: in vivo, Abutilon theophrasti; conditions: for Velvetleaf plant response rating (0 to 100 scale): 125 g ai/ha; for Velvetleaf plant response rating: 500 g ai/ha, 0 to 100 scale where 0 is no effect and 100 is complete control
Summary of the method: as §1

wheat [3] = assay: Test A preemergence; type: in vivo, Triticum aestivum; conditions: for Wheat plant response rating (0 to 100 scale): 125 g ai/ha; for Wheat plant response rating: 500 g ai/ha, 0 to 100 scale where 0 is no effect and 100 is complete control
Summary of the method: as §1

large (Lg) crabgrass [4] = assay: Test A postemergence; type: in vivo, Digitaria sanguinalis; conditions: 0 to 100 scale where 0 is no effect and 100 is complete control; for Crabgrass, Large plant response rating: 125 g ai/ha; for Plant response rating, Crabgrass, Large: 500 g ai/ha
Summary of the method: as §1

giant foxtail = assay: Test A postemergence; type: in vivo, Setaria faberii; conditions: 0 to 100 scale where 0 is no effect and 100 is complete control; for Foxtail, Giant plant response rating: 125 g ai/ha; for Plant response rating, Foxtail, Giant: 500 g ai/ha
Summary of the method: as §1

velvetleaf [5] = assay: Test A postemergence; type: in vivo, Abutilon theophrasti; conditions: 0 to 100 scale where 0 is no effect and 100 is complete control; for Velvetleaf plant response rating: 125 g ai/ha; for Plant response rating, Velvetleaf: 500 g ai/ha
Summary of the method: as §1

wheat [6] = assay: Test A postemergence; type: in vivo, Triticum aestivum; conditions: 0 to 100 scale where 0 is no effect and 100 is complete control; for Wheat plant response rating: 125 g ai/ha; for Plant response rating, Wheat: 500 g ai/ha
Summary of the method: as §1

rice = assay: Test B flooded paddy test; type: in vivo, Oryza sativa; conditions: Flood, 250 g ai/ha; 0 to 100 scale where 0 is no effect and 100 is complete control
Summary of the method: (§2)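 Compound added straight to paddy water, with pots kept flooded 3 cm above soil, on plants grown to the 2-leaf stage. Visual scoring 0-100 (100 = complete control) against untreated controls after 13 to 15 greenhouse days.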

Heteranthera limosa = assay: Test B flooded paddy test; type: in vivo; conditions: Flood, 250 g ai/ha; 0 to 100 scale where 0 is no effect and 100 is complete control
Summary of the method: as §2

lambsquarters = assay: Test C postemergence; type: in vivo, Chenopodium album; conditions: for Lambsquarters plant response rating: 31 g ai/ha; for Lambsquarters plant response rating / Plant response rating, Lambsquarters: scale 0 to 100 (0 no effect, 100 complete control)
Summary of the method: (§3)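 Visual ratings on a 0–100 scale (100 = complete control) were made versus untreated controls after 13–15 greenhouse days. Chemicals in a surfactant-containing non-phytotoxic solvent were applied either preemergence to seeds in loam–sand soil or postemergence to 1- to 4-leaf plants 2–18 cm tall.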

morningglory = assay: Test C postemergence; type: in vivo, Ipomoea coccinea; conditions: for Morningglory plant response rating: 31 g ai/ha; for Morningglory plant response rating / Plant response rating, Morningglory: scale 0 to 100 (0 no effect, 100 complete control)
Summary of the method: as §3

pigweed = assay: Test C postemergence; type: in vivo, Amaranthus retroflexus; conditions: for Pigweed plant response rating: 31 g ai/ha; for Pigweed plant response rating / Plant response rating, Pigweed: scale 0 to 100 (0 no effect, 100 complete control)
Summary of the method: as §3

soybean = assay: Test C postemergence; type: in vivo, Glycine max; conditions: for Soybean plant response rating: 31 g ai/ha; for Soybean plant response rating / Plant response rating, Soybean: scale 0 to 100 (0 no effect, 100 complete control)
Summary of the method: as §3

oilseed rape = assay: Test C postemergence; type: in vivo, Brassica napus; conditions: for Oilseed Rape plant response rating: 31 g ai/ha; for Oilseed Rape plant response rating / Plant response rating, Oilseed Rape: scale 0 to 100 (0 no effect, 100 complete control)
Summary of the method: as §3

kochia = assay: Test C postemergence; type: in vivo, Kochia scoparia; conditions: for Kochia plant response rating: 31 g ai/ha; for Kochia plant response rating / Plant response rating, Kochia: scale 0 to 100 (0 no effect, 100 complete control)
Summary of the method: as §3

velvetleaf [7] = assay: Test C postemergence; type: in vivo, Abutilon theophrasti; conditions: for Velvetleaf plant response rating: 31 g ai/ha; for Velvetleaf plant response rating / Plant response rating, Velvetleaf: scale 0 to 100 (0 no effect, 100 complete control)
Summary of the method: as §3

[8] = 0 to 100 scale where 0 is no effect and 100 is complete control
[9] = 16 g ai/ha, postemergence, 0 is no effect, 100 is complete control
[10] = postemergence, visual rating, 13 to 15 days
[11] = 125 g ai/ha, postemergence, visual rating
[12] = Postemergence, 62 g ai/ha, 13 to 15 days

## FC(F)c1cnn(-c2c(Br)cccc2Oc2ncc(Cl)cn2)c1 [Compound 232]
Large (Lg) crabgrass [1]; 125 g ai/ha
  Crabgrass, Large plant response rating (0 to 100 scale): 90
Large (Lg) crabgrass [1]; [8]
  Crabgrass, Large plant response rating: 100
Velvetleaf [2]
  Velvetleaf plant response rating (0 to 100 scale): 20
  Velvetleaf plant response rating: 100
Wheat [3]
  Wheat plant response rating (0 to 100 scale): 0
  Wheat plant response rating: 10
Large (Lg) crabgrass [4]
  Crabgrass, Large plant response rating: 60
  Plant response rating, Crabgrass, Large: 90
Giant foxtail
  Foxtail, Giant plant response rating: 70
  Plant response rating, Foxtail, Giant: 90
Velvetleaf [5]
  Velvetleaf plant response rating: 80
  Plant response rating, Velvetleaf: 100
Wheat [6]
  Wheat plant response rating: 20
  Plant response rating, Wheat: 50
rice
  Plant response rating, Rice: 35
Heteranthera limosa
  Plant response rating, Ducksalad: 95
lambsquarters; [9]
  Plant response rating (0 to 100), Lambsquarters: 55
lambsquarters; [10]
  Lambsquarters plant response rating: 60
lambsquarters; [11]
  Plant response rating, Lambsquarters: 75
lambsquarters; [12]
  Plant response rating, Lambsquarters: 70
morningglory; [9]
  Plant response rating (0 to 100), Morningglory: 70
morningglory; [10]
  Morningglory plant response rating: 80
morningglory; [11]
  Plant response rating, Morningglory: 85
morningglory; [12]
  Plant response rating, Morningglory: 55
pigweed; [9]
  Plant response rating (0 to 100), Pigweed: 60
pigweed; [10]
  Pigweed plant response rating: 70
pigweed; [11]
  Plant response rating, Pigweed: 85
pigweed; [12]
  Plant response rating, Pigweed: 60
soybean; [9]
  Plant response rating (0 to 100), Soybean: 30
soybean; [10]
  Soybean plant response rating: 55
soybean; [11]
  Plant response rating, Soybean: 75
soybean; [12]
  Plant response rating, Soybean: 70
Oilseed rape; [9]
  Plant response rating (0 to 100), Oilseed Rape: 5
Oilseed rape; [10]
  Oilseed Rape plant response rating: 50
Oilseed rape; [11]
  Plant response rating, Oilseed Rape: 60
Oilseed rape; [12]
  Plant response rating, Oilseed Rape: 5
kochia; [9]
  Plant response rating (0 to 100), Kochia: 85
kochia; [10]
  Kochia plant response rating: 85
kochia; [11]
  Plant response rating, Kochia: 98
kochia; [12]
  Plant response rating, Kochia: 90
Velvetleaf [7]; [9]
  Plant response rating (0 to 100), Velvetleaf: 35
Velvetleaf [7]; [10]
  Velvetleaf plant response rating: 60
Velvetleaf [7]; [11]
  Plant response rating, Velvetleaf: 65
Velvetleaf [7]; [12]
  Plant response rating, Velvetleaf: 30

## Fc1cccc(Oc2ncc(Cl)cn2)c1-n1cc(Cl)cn1 [Compound 177]
Large (Lg) crabgrass [1]; 125 g ai/ha, 0 to 100 scale where 0 is no effect and 100 is complete control
  Plant response rating, Crabgrass, Large: 100
Large (Lg) crabgrass [1]; [8]
  Crabgrass, Large plant response rating: 100
Velvetleaf [2]
  Velvetleaf plant response rating (0 to 100 scale): 80
  Velvetleaf plant response rating: 100
Wheat [3]
  Wheat plant response rating (0 to 100 scale): 0
  Wheat plant response rating: 50
Large (Lg) crabgrass [4]
  Crabgrass, Large plant response rating: 80
  Plant response rating, Crabgrass, Large: 100
Giant foxtail
  Foxtail, Giant plant response rating: 80
  Plant response rating, Foxtail, Giant: 100
Velvetleaf [5]
  Velvetleaf plant response rating: 100
  Plant response rating, Velvetleaf: 100
Wheat [6]
  Wheat plant response rating: 20
  Plant response rating, Wheat: 90
rice
  Plant response rating, Rice: 15
Heteranthera limosa
  Plant response rating, Ducksalad: 90
lambsquarters; [9]
  Plant response rating (0 to 100), Lambsquarters: 60
lambsquarters; [10]
  Lambsquarters plant response rating: 65
lambsquarters; [11]
  Plant response rating, Lambsquarters: 90
lambsquarters; Postemergence, 62 g ai/ha
  Plant response rating, Lambsquarters: 75
morningglory; [9]
  Plant response rating (0 to 100), Morningglory: 20
morningglory; [10]
  Morningglory plant response rating: 10
morningglory; [11]
  Plant response rating, Morningglory: 85
morningglory; Postemergence, 62 g ai/ha
  Plant response rating, Morningglory: 80
pigweed; [9]
  Plant response rating (0 to 100), Pigweed: 75
pigweed; [10]
  Pigweed plant response rating: 80
pigweed; [11]
  Plant response rating, Pigweed: 95
pigweed; Postemergence, 62 g ai/ha
  Plant response rating, Pigweed: 85
soybean; [9]
  Plant response rating (0 to 100), Soybean: 45
soybean; [10]
  Soybean plant response rating: 65
soybean; [11]
  Plant response rating, Soybean: 95
soybean; Postemergence, 62 g ai/ha
  Plant response rating, Soybean: 85
Oilseed rape; [9]
  Plant response rating (0 to 100), Oilseed Rape: 60
Oilseed rape; [10]
  Oilseed Rape plant response rating: 80
Oilseed rape; [11]
  Plant response rating, Oilseed Rape: 90
Oilseed rape; Postemergence, 62 g ai/ha
  Plant response rating, Oilseed Rape: 90
kochia; [9]
  Plant response rating (0 to 100), Kochia: 70
kochia; [10]
  Kochia plant response rating: 70
kochia; [11]
  Plant response rating, Kochia: 95
kochia; Postemergence, 62 g ai/ha
  Plant response rating, Kochia: 90
Velvetleaf [7]; [9]
  Plant response rating (0 to 100), Velvetleaf: 50
Velvetleaf [7]; [10]
  Velvetleaf plant response rating: 70
Velvetleaf [7]; [11]
  Plant response rating, Velvetleaf: 80
Velvetleaf [7]; Postemergence, 62 g ai/ha
  Plant response rating, Velvetleaf: 70

## N#Cc1cnn(-c2c(C#N)cccc2Oc2ncc(Cl)cn2)c1 [Compound 200]
Large (Lg) crabgrass [1]; 125 g ai/ha
  Crabgrass, Large plant response rating (0 to 100 scale): 100
Large (Lg) crabgrass [1]; [8]
  Crabgrass, Large plant response rating: 100
Velvetleaf [2]
  Velvetleaf plant response rating (0 to 100 scale): 100
  Velvetleaf plant response rating: 100
Wheat [3]
  Wheat plant response rating (0 to 100 scale): 30
  Wheat plant response rating: 50
Large (Lg) crabgrass [4]
  Crabgrass, Large plant response rating: 90
  Plant response rating, Crabgrass, Large: 90
Giant foxtail
  Foxtail, Giant plant response rating: 90
  Plant response rating, Foxtail, Giant: 90
Velvetleaf [5]
  Velvetleaf plant response rating: 100
  Plant response rating, Velvetleaf: 100
Wheat [6]
  Wheat plant response rating: 40
  Plant response rating, Wheat: 60
rice
  Plant response rating, Rice: 20
Heteranthera limosa
  Plant response rating, Ducksalad: 95
lambsquarters; [10]
  Lambsquarters plant response rating: 80
lambsquarters; [11]
  Plant response rating, Lambsquarters: 85
lambsquarters; 250 g ai/ha, postemergence
  Plant response rating (0 to 100), Lambsquarters: 95
lambsquarters; [12]
  Plant response rating, Lambsquarters: 80
morningglory; [10]
  Morningglory plant response rating: 85
morningglory; [11]
  Plant response rating, Morningglory: 95
morningglory; 250 g ai/ha, postemergence
  Plant response rating (0 to 100), Morningglory: 95
morningglory; [12]
  Plant response rating, Morningglory: 80
pigweed; [10]
  Pigweed plant response rating: 75
pigweed; [11]
  Plant response rating, Pigweed: 95
pigweed; 250 g ai/ha, postemergence
  Plant response rating (0 to 100), Pigweed: 95
pigweed; [12]
  Plant response rating, Pigweed: 90
soybean; [10]
  Soybean plant response rating: 90
soybean; [11]
  Plant response rating, Soybean: 95
soybean; 250 g ai/ha, postemergence
  Plant response rating (0 to 100), Soybean: 90
soybean; [12]
  Plant response rating, Soybean: 95
Oilseed rape; [10]
  Oilseed Rape plant response rating: 55
Oilseed rape; [11]
  Plant response rating, Oilseed Rape: 50
Oilseed rape; 250 g ai/ha, postemergence
  Plant response rating (0 to 100), Oilseed Rape: 70
Oilseed rape; [12]
  Plant response rating, Oilseed Rape: 55
kochia; [10]
  Kochia plant response rating: 80
kochia; [11]
  Plant response rating, Kochia: 98
kochia; 250 g ai/ha, postemergence
  Plant response rating (0 to 100), Kochia: 100
kochia; [12]
  Plant response rating, Kochia: 95
Velvetleaf [7]; [10]
  Velvetleaf plant response rating: 20
Velvetleaf [7]; [11]
  Plant response rating, Velvetleaf: 75
Velvetleaf [7]; 250 g ai/ha, postemergence
  Plant response rating (0 to 100), Velvetleaf: 70
Velvetleaf [7]; [12]
  Plant response rating, Velvetleaf: 50

Source: patent US9695155B2, “Herbicidal substituted pyrimidinyloxy benzene compounds” (E. I. DU PONT DE NEMOURS AND COMPANY, priority 2013, dated 2017)
